Reference: ChEMBL document CHEMBL4229557, “Synthesis and SAR of new isoxazole-triazole bis-heterocyclic compounds as analogues of natural lignans with antiparasitic activity” (Bioorg Med Chem, 2018)
The source made the active and inactive calls. The rule behind the calls is not given here.

What was measured:
Trypanosoma cruzi [1] = assay: Growth inhibition of Trypanosoma cruzi Tulahuen amastigote forms infected in human THP1 cells at 100 uM after 72 hrs by beta-galactosidase reporter gene assay relative to control; assay type: functional; conditions: THP-1, 72 h, read-out: GI
Trypanosoma cruzi [2] = assay: Growth inhibition of Trypanosoma cruzi Tulahuen amastigote forms infected in human THP1 cells after 72 hrs by beta-galactosidase reporter gene assay; assay type: functional
Leishmania amazonensis [3] = assay: Growth inhibition of Leishmania amazonensis MHOM/BR/77/LTB0016 amastigote forms expressing beta-galactosidase infected in human THP1 cells at 100 uM by colorimetrc assay relative to control; assay type: functional; conditions: for inhibition of growth at 100 µM: MHOM/BR/77/LTB0016, THP-1, read-out: GI
[4] = Selectivity index, ratio of CC50 for human THP1 cells to GI50 for Trypanosoma cruzi Tulahuen amastigote forms infected in human THP1 cells; assay type: toxicity, cell-based; conditions: read-out: Selectivity Index
[5] = Cytotoxicity against human THP1 cells after 72 hrs by MTT assay; assay type: cell-based; conditions: THP-1 cells
Trypanosoma cruzi [6] = assay: Growth inhibition of Trypanosoma cruzi Tulahuen amastigote forms infected in human THP1 cells at 20 uM after 72 hrs by beta-galactosidase reporter gene assay relative to control; assay type: functional; conditions: THP-1, 72 h, read-out: GI
[7] = biological target: Trypanothione reductase (Trypanosoma cruzi) (UniProt P28593); assay: Inhibition of Trypanosoma cruzi Trypanothione reductase expressed in Escherichia coli BL21(DE3) at 100 uM using T(S)2 as substrate incubated for 30 mins measured for 30 mins in presence of NADPH by DTNB reagent based assay relative to control
Chain of Trypanothione reductase (Trypanosoma cruzi) (P28593 whole entry, looked up): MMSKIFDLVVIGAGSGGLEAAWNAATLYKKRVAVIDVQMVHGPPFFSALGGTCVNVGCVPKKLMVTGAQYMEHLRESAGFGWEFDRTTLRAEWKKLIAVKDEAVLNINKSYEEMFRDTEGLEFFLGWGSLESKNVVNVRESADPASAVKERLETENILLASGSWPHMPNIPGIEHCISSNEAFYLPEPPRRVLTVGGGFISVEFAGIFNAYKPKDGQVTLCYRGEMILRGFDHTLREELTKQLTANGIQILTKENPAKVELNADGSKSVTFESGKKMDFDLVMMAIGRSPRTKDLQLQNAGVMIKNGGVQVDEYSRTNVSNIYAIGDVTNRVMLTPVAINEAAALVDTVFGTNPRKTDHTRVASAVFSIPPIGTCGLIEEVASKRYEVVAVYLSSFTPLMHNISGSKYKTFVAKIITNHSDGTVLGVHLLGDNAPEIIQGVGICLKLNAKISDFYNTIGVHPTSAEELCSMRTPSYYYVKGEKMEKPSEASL

Leishmania amazonensis [8] = assay: Growth inhibition of Leishmania amazonensis MHOM/BR/77/LTB0016 amastigote forms expressing beta-galactosidase infected in human THP1 cells at 2 uM by colorimetrc assay relative to control; assay type: functional; conditions: MHOM/BR/77/LTB0016, THP-1, read-out: GI

Row | Compound | inhibition of growth at 100 µM (Trypanosoma cruzi [1]) | GI50 (Trypanosoma cruzi [2]; THP-1, 72 h) | growth inhibition (GI) (Leishmania amazonensis [3]) | other results
1 | COc1ccc(-c2cn(Cc3cc(-c4ccc5c(c4)OCO5)no3)nn2)cc1 | 9.9% | > 100 µM |  | inhibition of growth at 100 µM (Leishmania amazonensis [3]): 2.8%
2 | O=C(Cn1ccnc1[N+](=O)[O-])NCc1ccccc1 [BENZNIDAZOLE] |  | 10.2 µM |  | selectivity ratio [4]: > 49; CC50 at 72 h [5]: > 500 µM; inhibition of growth at 20 µM (Trypanosoma cruzi [6]): 93%
3 | COc1cc(OC)cc(-c2cn(Cc3cc(-c4ccc5c(c4)OCO5)no3)nn2)c1 | 87.9% | 49.9 µM | inactive | inhibition [7]: 0%; selectivity ratio [4]: 4.2; CC50 at 72 h [5]: 208 µM
4 | COc1ccc(-c2cc(Cn3cc(-c4ccccc4OC)nn3)on2)cc1OC | 43.7% | > 100 µM | inactive | 
5 | OCc1ccc(-c2cn(Cc3cc(-c4ccccc4)no3)nn2)cc1 | 0% |  | inactive | GI50 (Trypanosoma cruzi [2]): inactive
6 | COc1ccc(-c2cc(Cn3cc(-c4ccc(OC(F)(F)F)cc4)nn3)on2)cc1OC | 78.5% | 40.1 µM | inactive | inhibition [7]: 0%; selectivity ratio [4]: 5.7; CC50 at 72 h [5]: 227 µM
7 | C[C@@H]1[C@H](O)[C@@H](C)/C=C/C=C/C=C/C=C/C=C/C=C/C=C/[C@H](O[C@@H]2O[C@H](C)[C@@H](O)[C@H](N)[C@@H]2O)C[C@@H]2O[C@](O)(C[C@@H](O)C[C@@H](O)[C@H](O)CC[C@@H](O)C[C@@H](O)CC(=O)O[C@H]1C)C[C@H](O)[C@H]2C(=O)O [AMPHOTERICIN B] |  |  |  | inhibition of growth at 2 µM (Leishmania amazonensis [8]): 96.5%
8 | COc1ccccc1-c1cn(Cc2cc(-c3ccccc3)no2)nn1 | 12.4% | > 100 µM | inactive | 
9 | CN(C)c1ccc(-c2cn(Cc3cc(-c4ccccc4)no3)nn2)cc1 | 32.6% | > 100 µM | inactive | 
10 | Fc1ccc(-c2cn(Cc3cc(-c4ccccc4)no3)nn2)cc1 | 0% |  | inactive | GI50 (Trypanosoma cruzi [2]): inactive
11 | CCCCCc1ccc(-c2cn(Cc3cc(-c4ccc5c(c4)OCO5)no3)nn2)cc1 | 48.9% | > 100 µM |  | inhibition of growth at 100 µM (Leishmania amazonensis [3]): 1.7%
12 | CCCCCc1ccc(-c2cn(Cc3cc(-c4ccccc4)no3)nn2)cc1 | 0% |  | inactive | GI50 (Trypanosoma cruzi [2]): inactive
13 | COc1ccc(-c2cc(Cn3cc(-c4ccccc4)nn3)on2)cc1OC | 12.2% | > 100 µM | inactive | 
14 | FC(F)(F)Oc1ccc(-c2cn(Cc3cc(-c4ccc5c(c4)OCO5)no3)nn2)cc1 | 26.8% | > 100 µM | inactive | 
15 | COc1ccc(-c2cc(Cn3cc(-c4ccc([N+](=O)[O-])cc4)nn3)on2)cc1OC | 37.8% | > 100 µM | inactive | 
16 | COc1ccc(-c2cc(Cn3cc(-c4ccc(N)cc4)nn3)on2)cc1OC | 42.8% | > 100 µM | inactive | 
17 | CCCCCc1ccc(-c2cn(Cc3cc(-c4ccc(OC)cc4)no3)nn2)cc1 | 13.4% | > 100 µM | inactive | 
18 | Nc1ccc(-c2cn(Cc3cc(-c4ccccc4)no3)nn2)cc1 | 0% |  | inactive | GI50 (Trypanosoma cruzi [2]): inactive
19 | CCCCCc1ccc(-c2cn(Cc3cc(-c4ccc(OC)c(OC)c4)no3)nn2)cc1 | 80.2% | 12.2 µM | inactive | inhibition [7]: 0%; selectivity ratio [4]: > 41; CC50 at 72 h [5]: > 500 µM
20 | COc1ccc(-c2cc(Cn3cc(-c4ccc(F)cc4)nn3)on2)cc1OC | 32% | > 100 µM | inactive | 
21 | COc1ccc(-c2cc(Cn3cc(-c4ccc(N(C)C)cc4)nn3)on2)cc1OC | 33.9% | > 100 µM | inactive | 
22 | COc1ccc(-c2cn(Cc3cc(-c4ccc(OC)cc4)no3)nn2)cc1 | 43.2% | > 100 µM | inactive | 
23 | COc1cc(OC)cc(-c2cn(Cc3cc(-c4ccc(OC)c(OC)c4)no3)nn2)c1 | 74.8% | 30.3 µM | inactive | inhibition [7]: 8.9%; selectivity ratio [4]: > 16.5; CC50 at 72 h [5]: > 500 µM

Row | Compound | inhibition of growth at 100 µM (Trypanosoma cruzi [1]) | GI50 (Trypanosoma cruzi [2]; THP-1, 72 h) | growth inhibition (GI) (Leishmania amazonensis [3]) | other results
24 | COc1ccc2cc(-c3cn(Cc4cc(-c5ccccc5)no4)nn3)ccc2c1 | 43.1% | > 100 µM | inactive | 
25 | COc1ccc(-c2cc(Cn3cc(-c4ccc(C)cc4)nn3)on2)cc1OC | 7.6% | > 100 µM | inactive | 
26 | Cc1cc(C)c(-c2cn(Cc3cc(-c4ccccc4)no3)nn2)cc1C | 89.5% | 88.4 µM | inactive | inhibition [7]: 0%; selectivity ratio [4]: 2.3; CC50 at 72 h [5]: 200 µM
27 | COc1ccc(-c2cn(Cc3cc(-c4ccc(OC)c(OC)c4)no3)nn2)c(C)c1 | 13.6% | > 100 µM | inactive | 
28 | COc1ccc(-c2cc(Cn3cc(-c4ccc(CO)cc4)nn3)on2)cc1OC | 43.4% | > 100 µM | inactive | 
29 | CN(C)CCCN1c2ccccc2CCc2ccc(Cl)cc21 [CLOMIPRAMINE] |  | 14 µM |  | 
30 | COc1ccc(-c2cc(Cn3cc(-c4cc(C)c(C)cc4C)nn3)on2)cc1 | 33.4% | > 100 µM | inactive | 
31 | O=[N+]([O-])c1ccc(-c2cn(Cc3cc(-c4ccccc4)no3)nn2)cc1 | 46.9% | > 100 µM | inactive | 
32 | COc1ccc(-c2cc(Cn3cc(-c4ccc(OC(F)(F)F)cc4)nn3)on2)cc1 | 26% | > 100 µM | inactive | 
33 | COc1cc(OC)cc(-c2cn(Cc3cc(-c4ccccc4)no3)nn2)c1 | 95.3% | 54.5 µM | inactive | inhibition [7]: 0%; selectivity ratio [4]: 2.6; CC50 at 72 h [5]: 143 µM
34 | COc1ccc(-c2cn(Cc3cc(-c4ccccc4)no3)nn2)cc1 | 43.3% | > 100 µM | inactive | 
35 | Cc1ccc(C)c(-c2cn(Cc3cc(-c4ccccc4)no3)nn2)c1 | 0% |  | inactive | GI50 (Trypanosoma cruzi [2]): inactive
36 | COc1ccc(-c2cc(Cn3cc(-c4cc(OC)cc(OC)c4)nn3)on2)cc1 | 3.6% | > 100 µM | inactive | 
37 | COc1ccc(-c2cc(Cn3cc(-c4cc(C)ccc4C)nn3)on2)cc1OC | 4% | > 100 µM | inactive | 
38 | FC(F)(F)Oc1ccc(-c2cn(Cc3cc(-c4ccccc4)no3)nn2)cc1 | 28.7% | > 100 µM | inactive | 
39 | COc1ccc(-c2cn(Cc3cc(-c4ccccc4)no3)nn2)c(C)c1 | 18.6% | > 100 µM | inactive | 
40 | c1ccc(-c2cn(Cc3cc(-c4ccccc4)no3)nn2)cc1 | 33.7% | > 100 µM | inactive | 
41 | Cc1cc(C)c(-c2cn(Cc3cc(-c4ccc5c(c4)OCO5)no3)nn2)cc1C | 13.4% | > 100 µM | inactive | 
42 | COc1ccc(-c2cn(Cc3cc(-c4ccc(OC)c(OC)c4)no3)nn2)cc1 | 81.9% | 22.7 µM | inactive | inhibition [7]: 9.6%; selectivity ratio [4]: > 22; CC50 at 72 h [5]: > 500 µM
43 | COc1ccc(-c2cc(Cn3cc(-c4cc(C)c(C)cc4C)nn3)on2)cc1OC | 89.6% | 55.2 µM | inactive | inhibition [7]: 9%; selectivity ratio [4]: > 9; CC50 at 72 h [5]: > 500 µM
44 | Cc1ccc(-c2cn(Cc3cc(-c4ccccc4)no3)nn2)cc1 | 45.2% | > 100 µM | inactive | 
45 | COc1ccc2cc(-c3cn(Cc4cc(-c5ccc(OC)c(OC)c5)no4)nn3)ccc2c1 | 26.2% | > 100 µM | inactive | 
